Test results reported in publication PMC7249047, “Search for ABCB1 Modulators Among 2-Amine-5-Arylideneimidazolones as a New Perspective to Overcome Cancer Multidrug Resistance” (Molecules, 2020).
Where “and” joins values, the source holds several entries; their conditions need not be identical. Equal values may be shown once.

Columns and labels:
[1] = Cytotoxicity MTT assay, 24 h, PAR cells; assay type: cell-based; details: mouse, parental (PAR) L5178 mouse T-cell lymphoma cells, read-out: Cytotoxic effect IC50
Method: (§1) The cytotoxicity of compounds 7–20 was examined in both aforementioned PAR and MDR mouse T-lymphoma cell lines, using the MTT assay to estimate IC50 values. The selectivity index for cytotoxic action on MDR with respect to PAR cells was calculated (SI, Table 3). […] This range of SI may indicate ABCB1-efflux pump substrate properties for the whole series (7–20), especially distinct in the case of 19 (SI ≤ 0.29), and slightly weaker for 8, 12, 16, and 18.
(§2) L5178 mouse T-cell lymphoma cells (PAR) (ECACC Cat. No. 87111908, obtained from FDA, Silver Spring, MD, USA) were transfected with pHa MDR1/A retrovirus, as previously described by Cornwell et al.. The ABCB1-expressing cell line L5178Y (MDR) was selected by culturing the infected cells with colchicine. The parental L5178 mouse T-cell lymphoma cells and the L5178Y human ABCB1-transfected subline were cultured in McCoy’s 5A medium (Sigma-Aldrich, St Louis, MO, USA) supplemented with 10% heat-inactivated horse serum (Sigma-Aldrich, St Louis, MO, USA), 200 mM L-glutamine (Sigma-Aldrich, St Louis, MO, USA), and a penicillin-streptomycin (Sigma-Aldrich, St Louis, MO, USA) mixture in concentrations of 100 U/L and 10 mg/L, respectively. The cell lines were incubated at 37 °C, in a 5% CO2, 95% air atmosphere.
(§3) Cytotoxicity and antiproliferative assays were performed following the procedure described in the literature. Parental and multidrug-resistant mouse T-lymphoma cells were used to determine the effect of the arylideneimidazolones on the growth of cells. The effects of increasing concentrations of arylideneimidazolones on cell growth were tested in 96-well flat-bottomed microtiter plates. The compounds were diluted in a volume of 100 μL of medium.
(§4) In the case of the mouse T-lymphoma cells, the two-fold serial dilutions were prepared in 100 μL of McCoy’s 5A, horizontally. The parental (PAR) and multidrug-resistant (MDR) mouse T-lymphoma cells were adjusted to a density of 1 × 10^4 cells (for cytotoxic assay) and 6 × 10^3 (for antiproliferative assay) in 100 μL of McCoy’s 5A medium and were added to each well, with the exception of the medium control wells.
(§5) The culture plates were incubated at 37 °C for 24 h (for cytotoxicity assay) and 72 h (for antiproliferative assay); at the end of the incubation period, 20 μL of MTT (thiazolyl blue tetrazolium bromide, Sigma) solution (from a stock solution of 5 mg/mL) were added to each well. After incubation at 37 °C for 4 h, 100 μL of sodium dodecyl sulfate (SDS) (Sigma) solution (10% in 0.01 M HCI) were added to each well and the plates were further incubated at 37 °C overnight. Cell growth was determined by measuring the optical density (OD) at 540/630 nm with a Multiscan EX ELISA reader (Thermo Labsystems, Cheshire, WA, USA).
(§6) Results have been expressed in terms of IC50, defined as the inhibitory dose that reduces the growth of the cells exposed to the tested compounds by 50%, each representing the mean of a minimum of three independent experiments.

[2] = Cytotoxicity MTT assay, 24 h, MDR cells; assay type: cell-based; details: mouse; for IC50 at 24 h: MDR cells, MTT, read-out: Cytotoxic effect IC50; for selectivity ratio at 24 h: cytotoxic action on MDR with respect to PAR cells, read-out: SI (selectivity index), cytotoxicity
Method: as §1, §2, §3, §4, §5, §6

[3] = test system: parental (PAR) mouse T-lymphoma cells; assay: Antiproliferative MTT assay, 72 h, PAR cells; assay type: cell-based; details: read-out: Antiproliferative effect IC50
Method: (§7) The ABCB1-expressing cell line L5178Y (MDR) was selected by culturing the infected cells with colchicine. The parental L5178 mouse T-cell lymphoma cells and the L5178Y human ABCB1-transfected subline were cultured in McCoy’s 5A medium (Sigma-Aldrich, St Louis, MO, USA) supplemented with 10% heat-inactivated horse serum (Sigma-Aldrich, St Louis, MO, USA), 200 mM L-glutamine (Sigma-Aldrich, St Louis, MO, USA), and a penicillin-streptomycin (Sigma-Aldrich, St Louis, MO, USA) mixture in concentrations of 100 U/L and 10 mg/L, respectively.
as §3, §4
(§8) Cell growth was determined by measuring the optical density (OD) at 540/630 nm with a Multiscan EX ELISA reader (Thermo Labsystems, Cheshire, WA, USA).

[4] = test system: multidrug-resistant (MDR) mouse T-lymphoma cells; assay: Antiproliferative MTT assay, 72 h, MDR cells; assay type: cell-based; details: for SI (selectivity index), antiproliferative: MDR with respect to PAR cells; for IC50: Mus musculus, MDR cells, 72 h, MTT, read-out: Antiproliferative effect IC50
Method: as §7, §3, §4, §8

Pgp (ABCB1) ATPase = target: T1, Pgp (ABCB1) ATPase (Homo sapiens, UniProt P08183); assay: Luminescent Pgp-Glo Assay (Pgp ATPase intrinsic activity); assay type: biochemical; details: 100 µM, 40 min, 37 °C; substrates stimulate basal activity (>100%)
T1 construct: purchased Promega (Madison, WI, USA)
Method: Compounds 11, 12, and 18 were tested at 100 µM on their influence on the ATPase activity of the Pgp pump in the luminescence Pgp-Glo™ Assay, according to previously described methods and protocols. In this assay, luminescence was measured. The Pgp-dependent decreases in luminescence reflect the ATP consumption by Pgp. […] Thus, inhibitors give results <100% of the basal activity, while stimulators/substrates cause a statistically significant increase in the basal activity. […].
The luminescent Pgp-Glo™ Assay System used for determination of the arylideneimidazolone influence on P-glycoprotein activity was purchased from Promega (Madison, WI, USA). The assay was performed in triplicate as described previously. […]. For basal P-gp activity calculation, the membranes were incubated with 100 µM of Na3VO4. The luminescence signal was measured by a microplate reader EnSpire PerkinElmer (Waltham, MA, USA). The statistical significances were calculated using GraphPad Prism 8.0.1 software.

[5] = Safety in vitro, MTS assay in HEK-293 cells; assay type: cell-based, human; details: human, HEK-293 cells, 50 µM, read-out: HEK-293 cell viability
Method: (§9) For safety assay, cells were seeded in 96-well plates at a concentration of 1 × 10^4 cells/well and incubated for 24 h at 37 °C in 5% CO2 atmosphere to reach 50% of confluence. Compounds 11, 12, and 18 were diluted into fresh growth medium and added to the cells at the final concentrations of 0.1–100 μM. The positive control DOX (1 μM) was also added and the cells were incubated for 72 h. The MTS (3-(4,5-dimethylthiazol-2-yl)-5-(3-carboxymethoxyphenyl)-2-(4-sulfophenyl)-2H-tetrazolium) reagent (CellTiter 96® AQueous One Solution Cell Proliferation Assay, Promega, Madison, WI, USA) was added next to each well and incubated for 4 h. The absorbance was measured using a microplate reader (EnSpire, PerkinElmer, Waltham, MA USA) at 490 nm to determine the cells’ viability. The statistical significances were calculated using GraphPad Prism 8.0.1 software.

HEK-293 cells = assay: Safety in vitro, MTS assay in HEK-293 cells; assay type: cell-based, human; details: highest used concentrations (50 and 100 µM), 72 h
Method: as §9

ABCB1 efflux pump = ABCB1 efflux pump (Homo sapiens, UniProt P08183); assay: Rhodamine 123 accumulation assay (flow cytometry); details: for efflux pump inhibiting effect relative to verapamil: 20 µM, same concentration as verapamil; for FAR Quotient (%): FAR of compound related to FAR of VER tested at 20 µM; for FAR (fluorescence activity ratio): rhodamine 123 accumulation, MDR vs PAR mouse T-lymphoma cells
Method: The study was carried out on mouse T-lymphoma cell lines, including the parental sensitive line (PAR) and its multidrug-resistant subline (MDR) transfected with the human MDR1 (ABCB1) gene. […] The fluorescence activity ratio (FAR), as a measure of the efflux pump modulating properties, was calculated based on the fluorescence data obtained [23, 24, 25]. […] The parental L5178 mouse T-cell lymphoma cells and the L5178Y human ABCB1-transfected subline were cultured in McCoy’s 5A medium (Sigma-Aldrich, St Louis, MO, USA) supplemented with 10% heat-inactivated horse serum (Sigma-Aldrich, St Louis, MO, USA), 200 mM L-glutamine (Sigma-Aldrich, St Louis, MO, USA), and a penicillin-streptomycin (Sigma-Aldrich, St Louis, MO, USA) mixture in concentrations of 100 U/L and 10 mg/L, respectively.
The potency of the tested compounds as inhibitors of the ABCB1 efflux pump was determined using a fluorescence-based detection system, described previously in the literature [23, 26]. […] The parental (PAR) and multidrug-resistant (MDR) mouse T-lymphoma cells were adjusted to a density of 2 × 10^6/mL, re-suspended in serum-free McCoy’s 5A medium, and distributed in 0.5 mL aliquots into Eppendorf centrifuge tubes. […] The fluorescence intensity of the cell population was measured with a Partec CyFlow flow cytometer (Partec, Munster, Germany). […] The mean fluorescence intensity (%) was calculated for the treated MDR and PAR mouse T-lymphoma cells as compared to the untreated cells.

[6] = concentration 20 µM, VER values for assay group 1 / 2

Chain of ABCB1 efflux pump (P08183 whole entry): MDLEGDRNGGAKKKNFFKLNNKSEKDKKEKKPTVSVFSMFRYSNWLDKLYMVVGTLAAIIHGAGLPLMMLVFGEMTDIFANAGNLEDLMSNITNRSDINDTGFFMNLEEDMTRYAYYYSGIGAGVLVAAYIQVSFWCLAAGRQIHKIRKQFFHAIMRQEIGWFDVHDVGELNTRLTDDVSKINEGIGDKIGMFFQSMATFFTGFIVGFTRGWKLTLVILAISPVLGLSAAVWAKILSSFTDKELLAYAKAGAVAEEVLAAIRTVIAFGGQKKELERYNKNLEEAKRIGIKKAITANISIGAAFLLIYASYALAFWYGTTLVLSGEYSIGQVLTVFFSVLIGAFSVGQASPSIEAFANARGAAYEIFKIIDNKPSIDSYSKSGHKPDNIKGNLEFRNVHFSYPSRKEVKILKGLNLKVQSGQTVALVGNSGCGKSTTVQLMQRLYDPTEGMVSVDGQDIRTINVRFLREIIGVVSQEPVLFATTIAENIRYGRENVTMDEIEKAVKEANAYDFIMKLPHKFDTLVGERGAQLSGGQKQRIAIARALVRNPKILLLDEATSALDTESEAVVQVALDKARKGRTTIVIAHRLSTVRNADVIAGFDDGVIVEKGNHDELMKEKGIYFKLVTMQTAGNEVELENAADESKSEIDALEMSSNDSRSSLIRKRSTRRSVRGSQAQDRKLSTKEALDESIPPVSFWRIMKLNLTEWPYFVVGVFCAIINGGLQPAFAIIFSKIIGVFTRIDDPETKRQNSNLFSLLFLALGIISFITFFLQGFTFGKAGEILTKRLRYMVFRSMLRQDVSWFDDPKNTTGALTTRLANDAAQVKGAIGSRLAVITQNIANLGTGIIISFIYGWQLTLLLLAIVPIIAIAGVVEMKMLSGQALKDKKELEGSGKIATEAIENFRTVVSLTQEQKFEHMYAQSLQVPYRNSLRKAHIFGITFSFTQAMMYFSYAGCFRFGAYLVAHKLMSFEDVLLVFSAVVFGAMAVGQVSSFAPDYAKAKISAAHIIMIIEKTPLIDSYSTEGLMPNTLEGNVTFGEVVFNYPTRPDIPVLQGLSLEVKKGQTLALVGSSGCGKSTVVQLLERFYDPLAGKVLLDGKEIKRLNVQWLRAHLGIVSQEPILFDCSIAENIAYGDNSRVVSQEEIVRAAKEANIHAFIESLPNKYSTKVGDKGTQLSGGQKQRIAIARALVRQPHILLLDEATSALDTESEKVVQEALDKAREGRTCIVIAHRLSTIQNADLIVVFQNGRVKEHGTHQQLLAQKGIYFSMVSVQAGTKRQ
T1 sequence (P08183 whole entry): as above

Structure (SMILES)	IC50 at 24 h [1] [µM]	IC50 at 24 h [2] [µM]	selectivity ratio at 24 h [2]	IC50 [3] [µM]	SI (selectivity index), antiproliferative [4]	IC50 [4] [µM]	effect on ABCB1 basal activity (Pgp ATPase) (Pgp (ABCB1) ATPase)	viability at 72 h, 50 µM [5] [%]	effect on HEK-293 cell viability (HEK-293 cells)	efflux pump inhibiting effect relative to verapamil (ABCB1 efflux pump)	FAR Quotient (%) (ABCB1 efflux pump; concentration 2 µM)	FAR (fluorescence activity ratio) (ABCB1 efflux pump; concentration 2 µM)	FAR Quotient (%) (ABCB1 efflux pump; concentration 20 µM)	FAR (fluorescence activity ratio) (ABCB1 efflux pump; [6])	melting point [°C]
Cl.O=C1N=C(N2CCC(N3CCOCC3)CC2)N/C1=C\c1ccc(Oc2ccccc2)cc1 [Compound 11, (Z)-5-(4-Phenoxybenzylidene)-2-(4-morpholinopiperidin-1-yl)-imidazol-4(5H)-one hydrochloride]	39.1	45.5	0.86	24.8	0.97	25.6	increase in basal activity	84.2	significantly decreased HEK-293 cell viability	~1.5 fold and 1.38–1.46 fold	7.51	1.203	146.22	23.419	
Cl.NC1=N/C(=C\c2ccc3c(c2)Cc2ccccc2-3)C(=O)N1CCCN1CCOCC1 [Compound 18, (Z)-5-((9H-Fluoren-2-yl)methylene)-2-amino-3-(3-morpholinopropyl)-imidazol-4(5H)-one hydrochloride]	16	27.8	0.58	13.4	1.24	10.8	increase in basal activity	10.3	significantly decreased HEK-293 cell viability	~1.5 fold and 1.38–1.46 fold	7.94	1.038	138.37	18.095	261 to 263
